This passage reports EC50 results from patent US9693997B2, “Antiviral compounds” (priority 2013, dated 2017).

Assay [1] relates to pseudotyped VSV G particles (VSVpp) in Huh7-high CD81 cells. As to the kind of experiment: microbe, parasite or virus in culture. The conditions noted are these: Vesicular stomatitis virus, 72 h, read-out: VSVpp (EC50, μM). It counts as cell-based, vesicular stomatitis virus.
In assay [2] the test system is Pseudotyped HCV GT1b particles (HCVpp), entry into Huh7-high CD81 cells. As to the kind of experiment: microbe, parasite or virus in culture. It counts as cell-based, HCV GT1b Con1 strain. The conditions noted are these: Hepatitis C virus, GT1B, 72 h, read-out: HCVpp GT-1b (EC50, μM).

Molecules are shown by their SMILES. Structures can show the parent of a compound that is named as a salt.

For orientation: EC50 means the concentration at which the effect is half-maximal.

Regarding `COC(=O)c1ccc(-c2c(Cl)cc(Nc3n[nH]c(N)n3)cc2Cl)cc1` [Compound 110, 4′-(5-Amino-1H-[1,2,4]triazol-3-ylamino)-2′,6′-dichloro-biphenyl-4-carboxylic acid methyl ester], the EC50 in assay [1] is 25 µM; in assay [2], 0.1 µM.

`C[C@@H](NS(C)(=O)=O)c1ccc(-c2c(Cl)cc(Nc3n[nH]c(N)n3)cc2C(F)(F)F)cc1` [Compound 24, N—{(R)-1-[4′-(5-Amino-1H-[1,2,4]triazol-3-ylamino)-2′-chloro-6′-trifluoromethyl-biphenyl-4-yl]-ethyl}-methanesulfonamide]: the concentration giving a half-maximal response (EC50) in assay [1] is above 10 µM; in assay [2] it was 0.058 µM.

In the case of `CC(C)(C)OC(=O)N1CCC(Oc2ccc(-c3c(Cl)cc(Nc4n[nH]c(N)n4)cc3Cl)cc2)CC1` [Compound 268, 4-[4′-(5-Amino-1H-[1,2,4]triazol-3-ylamino)-2′,6′-dichloro-biphenyl-4-yloxy]-piperidine-1-carboxylic acid tert-butyl ester], the EC50 is above 10 µM in assay [1] and 0.17 µM in assay [2].

Take `CS(=O)(=O)c1ccc(-c2c(F)cc(Nc3nc(N)n[nH]3)cc2C(F)(F)F)cc1` [Compound 70, N^5-(2-Fluoro-4′-(methylsulfonyl)-6-trifluoromethylbiphenyl-4-yl)-1H-[1,2,4]-triazole-3,5-diamine]: the EC50 in assay [1] turned out to be 5.15 µM; in assay [2] it was 0.064 µM.

In the case of `Nc1nc(Nc2cc(Cl)c(-c3ccc4[nH]c(=O)[nH]c4c3)c(Cl)c2)n[nH]1` [Compound 255], the values for the concentration giving a half-maximal response (EC50) in assay [1] and in assay [2] were above 10 µM and 0.42 µM, respectively.

As to `N#Cc1ccc(-c2c(F)cc(Nc3nc(N)n[nH]3)cc2F)cc1` [Compound 87], the EC50 is above 10 µM in assay [1] and 0.696 µM in assay [2].

Consider `CC(C)N1CC(C)(NS(=O)(=O)c2ccc(-c3c(Cl)cc(Nc4n[nH]c(N)n4)cc3C(F)(F)F)cc2)C1` [Compound 210, 4′-(5-amino-1H-1,2,4-triazol-3-ylamino)-2′-chloro-N-(1-isopropyl-3-methylazetidin-3-yl)-6′-(trifluoromethyl)biphenyl-4-sulfonamide hydrochloride], for which the concentration giving a half-maximal response (EC50) in assay [1] came out at 4.41 µM; in assay [2], 0.021 µM.

`CC1(NS(=O)(=O)c2ccc(-c3c(Cl)cc(Nc4n[nH]c(N)n4)cc3C(F)(F)F)cc2)CC1` [Compound 206, 4′-(5-amino-1H-1,2,4-triazol-3-ylamino)-2′-chloro-N-(1-methylcyclopropyl)-6′-(trifluoromethyl)biphenyl-4-sulfonamide]: the EC50 in assay [1] came to 9.62 µM; in assay [2] it was 0.017 µM.

With `COc1ccc(-c2c(Cl)cc(Nc3n[nH]c(N)n3)cc2C(F)(F)F)cc1S(=O)(=O)NC1CCN(C(C)=O)CC1` [Compound 227, 4′-(5-Amino-1H-[1,2,4]triazol-3-ylamino)-6′-chloro-4-methoxy-2′-trifluoromethyl-biphenyl-3-sulfonic acid (1-acetyl-piperidin-4-yl)-amide], the EC50 is above 10 µM in assay [1] and 0.042 µM in assay [2].

On to `Nc1nc(Nc2cc(Cl)c(-c3ccc(S(=O)(=O)C4CC4)cc3)c(C(F)(F)F)c2)n[nH]1` [Compound 188, N3-(2-chloro-4′-(cyclopropylsulfonyl)-6-(trifluoromethyl)biphenyl-4-yl)-1H-1,2,4-triazole-3,5-diamine], for which the EC50 stood at 0.09 µM in assay [1] and 0.089 µM in assay [2].

As for `CN(CCNS(=O)(=O)c1ccc(-c2c(Cl)cc(Nc3n[nH]c(N)n3)cc2C(F)(F)F)cc1)C(=O)OC(C)(C)C` [Compound 209, tert-butyl 2-(4′-(5-amino-1H-1,2,4-triazol-3-ylamino)-2′-chloro-6′-(trifluoromethyl)biphenyl-4-ylsulfonamido)ethyl(methyl)carbamate], the half-maximal effective concentration (EC50) in assay [1] stood at 7.09 µM; in assay [2], 0.005 µM.

For the compound `Nc1nc(Nc2cc(Cl)c(-c3ccc(OCCCN4CCOCC4)cc3)c(Cl)c2)n[nH]1` [Compound 283, N*3*-[2,6-Dichloro-4′-(3-morpholin-4-yl-propoxy)-biphenyl-4-yl]-1H-[1,2,4]triazole-3,5-diamine], the 50% effective concentration (EC50) was above 10 µM in assay [1] and 0.523 µM in assay [2].

For `CS(=O)(=O)Nc1ccc(-c2c(Cl)cc(Nc3n[nH]c(N)n3)cc2Cl)cc1F` [Compound 46, N-[4′-(5-Amino-1H-[1,2,4]triazol-3-ylamino)-2′,6′-dichloro-3-fluoro-biphenyl-4-yl]-methanesulfonamide], the EC50 is above 10 µM in assay [1] and 0.414 µM in assay [2].

As for `COc1ccccc1-c1c(Cl)cc(Nc2n[nH]c(N)n2)cc1Cl` [Compound 120, N-3-(2,6-Dichloro-2′-methoxy-biphenyl-4-yl)-1H-[1,2,4]triazole-3,5-diamine], the EC50 in assay [1] worked out at 1.12 µM; in assay [2], 0.181 µM.

On to `COc1ccc(-c2c(Cl)cc(Nc3n[nH]c(N)n3)cc2C(F)(F)F)cc1S(=O)(=O)NC1(C#N)CC1` [Compound 225], for which the 50% effective concentration (EC50) in assay [1] is above 10 µM; in assay [2] it was 0.031 µM.

For `Nc1nc(Nc2cc(Cl)c(-c3ccc(S(=O)(=O)N4CCC(F)(F)CC4)cc3)c(C(F)(F)F)c2)n[nH]1` [Compound 183, N3-(2-chloro-4′-(4,4-difluoropiperidin-1-ylsulfonyl)-6-(trifluoromethyl)biphenyl-4-yl)-1H-1,2,4-triazole-3,5-diamine], the EC50 came to 8.19 µM in assay [1] and 0.048 µM in assay [2].

Consider `Nc1nc(Nc2cc(Cl)c(-c3ccc(S(=O)(=O)N4CCOCC4)cc3)c(C(F)(F)F)c2)n[nH]1` [Compound 36, N*3*-[2-Chloro-4′-(morpholine-4-sulfonyl)-6-trifluoromethyl-biphenyl-4-yl]-1H-[1,2,4]triazole-3,5-diamine], for which the values for the EC50 in assay [1] and in assay [2] were 14.2 µM and 0.096 µM, respectively.

Take `CC(C)(C)NS(=O)(=O)c1ccc(-c2c(Cl)cc(Nc3n[nH]c(N)n3)cc2Cl)cc1` [Compound 164, 4′-(5-amino-1H-1,2,4-triazol-3-ylamino)-N-tert-butyl-2′,6′-dichlorobiphenyl-4-sulfonamide]: the EC50 in assay [1] was 7.06 µM; in assay [2] it was 0.004 µM.

Consider `Nc1nc(Nc2ccc(-c3ccccc3F)c(Cl)c2)n[nH]1` [Compound 146, N*3*-(2-Chloro-2′-fluoro-biphenyl-4-yl)-1H-[1,2,4]triazole-3,5-diamine], for which the values for the concentration for a half-maximal effect (EC50) in assay [1] and in assay [2] were 29.4 µM and 2.88 µM, respectively.

With `CC(C)(C)OC(=O)N1CCN(S(=O)(=O)c2ccc(-c3c(Cl)cc(Nc4n[nH]c(N)n4)cc3C(F)(F)F)cc2)C2(CC2)C1` [Compound 208, tert-butyl 4-(4′-(5-amino-1H-1,2,4-triazol-3-ylamino)-2′-chloro-6′-(trifluoromethyl)biphenyl-4-ylsulfonyl)-4,7-diazaspiro[2.5]octane-7-carboxylate], the concentration for a half-maximal effect (EC50) in assay [1] was above 10 µM; in assay [2] it was 0.049 µM.

Turning to `CC1(NS(=O)(=O)c2ccc(-c3c(Cl)cc(Nc4n[nH]c(N)n4)cc3C(F)(F)F)cc2)COC1` [Compound 60, 4′-(5-Amino-1H-[1,2,4]triazol-3-ylamino)-6′-chloro-2′-trifluoromethyl-biphenyl-4-sulfonic acid (3-methyl-oxetan-3-yl)-amide], the EC50 in assay [1] is above 10 µM; in assay [2] it was 0.014 µM.

`CC(C)(CO)NS(=O)(=O)c1ccc(-c2c(Cl)cc(Nc3n[nH]c(N)n3)cc2C(F)(F)F)cc1` [Compound 226, 4′-(5-Amino-1H-[1,2,4]triazol-3-ylamino)-6′-chloro-2′-trifluoromethyl-biphenyl-4-sulfonic acid (2-hydroxy-1,1-dimethyl-ethyl)-amide]: the EC50 in assay [1] amounted to 5.39 µM; in assay [2] it was 0.032 µM.

In the case of `CNCCOc1ccc(-c2c(Cl)cc(Nc3n[nH]c(N)n3)cc2Cl)cc1` [Compound 263, N*3*-[2,6-Dichloro-4′-(2-methylamino-ethoxy)-biphenyl-4-yl]-1H-[1,2,4]triazole-3,5-diamine], the concentration giving a half-maximal response (EC50) stood at 3.75 µM in assay [1] and 0.059 µM in assay [2].

As to `CN(C)S(=O)(=O)c1ccc(-c2c(F)cc(Nc3nc(N)n[nH]3)cc2C(F)(F)F)cc1` [Compound 75, 4′-(5-Amino-2H-[1,2,4]-triazol-3-ylamino)-6′-fluoro-2′-trifluoromethyl-biphenyl-4-sulfonic acid dimethylamide], the half-maximal effective concentration (EC50) in assay [1] stood at 12.6 µM; in assay [2], 0.164 µM.

Regarding `CC(C)(C)OC(=O)COc1ccc(-c2c(Cl)cc(Nc3n[nH]c(N)n3)cc2Cl)cc1` [Compound 276, [4′-(5-Amino-1H-[1,2,4]triazol-3-ylamino)-2′,6′-dichloro-biphenyl-4-yloxy]-acetic acid tert-butyl ester], the half-maximal effective concentration (EC50) in assay [1] was above 10 µM; in assay [2], 0.168 µM.

On to `CC(C)(C)OC(=O)N1CCC[C@@H]1COc1ccc(-c2c(Cl)cc(Nc3n[nH]c(N)n3)cc2C(F)(F)F)cc1` [Compound 267, (R)-2-[4′-(5-Amino-1H-[1,2,4]triazol-3-ylamino)-2′-chloro-6′-trifluoromethyl-biphenyl-4-yloxymethyl]-pyrrolidine-1-carboxylic acid tert-butyl ester], for which the values for the 50% effective concentration (EC50) in assay [1] and in assay [2] were 9.62 µM and 0.048 µM, respectively.

Turning to `COc1ccc(-c2c(Cl)cc(Nc3n[nH]c(N)n3)cc2C(F)(F)F)cc1S(=O)(=O)NCCO` [Compound 175, 4′-(5-amino-1H-1,2,4-triazol-3-ylamino)-2′-chloro-N-(2-hydroxyethyl)-4-methoxy-6′-(trifluoromethyl)biphenyl-3-sulfonamide], the EC50 in assay [1] is above 10 µM; in assay [2], 0.018 µM.

With `CS(=O)(=O)Nc1cccc(-c2c(F)cc(Nc3nc(N)n[nH]3)cc2C(F)(F)F)c1` [Compound 243, N-[4′-(5-Amino-2H-[1,2,4]-triazol-3-ylamino)-6′-fluoro-2′-trifluoromethyl-biphenyl-3-yl]-methanesulfonamide], the EC50 in assay [1] is above 10 µM; in assay [2], 0.213 µM.

As to `CC1(C)OCC(COc2ccc(-c3c(Cl)cc(Nc4n[nH]c(N)n4)cc3Cl)cc2)O1` (stereo not shown) [Compound 274, N*3*-[2,6-Dichloro-4′-(2,2-dimethyl-[1,3]dioxolan-4-ylmethoxy)-biphenyl-4-yl]-1H-[1,2,4]triazole-3,5-diamine], the EC50 in assay [1] is 34.1 µM; in assay [2] it was 0.121 µM.
